System: KRAS patient-derived spheroids with HUVEC/MSC, viability
Experiment: Anticancer human tumor 941728-121-R-J1-PDC patient-derived lung adenocarcinoma cell line growth inhibition [KRAS2]
Details: for IC50: curve of first compound; for viability, T/C: stronger effect = lower value; active means viability on the fitted dose curve at most 10% of control; inactive means the rest
From the text: Multicellular complex tumor spheroid response to RAS pathway inhibitors in combination with a targeted agents in patient-derived cell lines with oncogenic KRAS variants from multiple cancer types
A high-throughput screen of multi-cell type tumor spheroids was designed to identify active combinations of targeted small molecules and KRAS pathway inhibitors. Complex spheroids include a stromal component modeled by human endothelial cells (HUVEC) and fibroblasts modeled by human mesenchymal stem cells (MSCs). The concentration ranges selected for each drug and investigational agent were based upon clinically achievable concentrations if the clinical Cmax of the agent was known.
Compounds. The drugs and investigational agents: BI-3406 (NSC825286), BAY-293 (NSC824723), batoprotafib (TNO155; NSC825523), sotorasib (AMG 510; NSC818433), MRTX1257 (NSC819558), elimusertib (BAY 1895344; NSC800525), molibresib (GSK525762; NSC774829), temuterkib (LY3214996; NSC803410), venetoclax (NSC766270), alisertib (NSC759677), olaparib (NSC753686), talazoparib (NSC767125), erdafitinib (NSC781556), ipatasertib (NSC767898), cabozantinib (NSC761068), nintedanib (NSC756659), abemaciclib (NSC768073), docetaxel (NSC628503), trametinib (NSC758246), and sapanisertib (NSC764658) were obtained from the National Cancer Institute (NCI) Developmental Therapeutics Program Chemical Repository. The FDA-approved anticancer drug set is available from the Developmental Therapeutics Program. […] The stock solutions were prepared in dimethyl sulfoxide (DMSO, Sigma-Aldrich, St. Louis, MO, cat. D2650) at 800-fold the tested concentration and stored at -70 degrees C prior to their use. All drugs and investigational agents were tested over a range starting from a high concentration at or near the clinical Cmax and decreasing in half-log increments. If the clinical Cmax for an agent had not been determined, the highest concentration tested was 10 microM.
Cell Culture. All cells were maintained in an incubator at 37 degrees C and 5% CO2 with 95% humidity. The PDC lines were cultured according to standard operating procedures established by the NCI PDMR (https://pdmr.cancer.gov/sops/default.htm). Briefly, all PDCs were thawed and cultured in Matrigel-coated flasks prepared with a working solution of 1X Ham's F-12 nutrient mix, without supplementation (Invitrogen, Waltham, MA, cat. 11765054), 100 U/mL penicillin-streptomycin (Invitrogen, cat. 15140122), and 2.5% Matrigel (Corning Inc., Corning, NY, cat. 354248) for the first three passages. All PDCs were cultured in complete DMEM/F-12 media containing advanced DMEM/F-12 (Invitrogen, cat. 12634028), 4.9% defined fetal bovine serum, heat inactivated (HyClone Laboratories Inc., Logan, UT, cat. SH30070.03HI), 389 ng/mL hydrocortisone (Sigma-Aldrich, cat. H4001), 9.7 ng/mL human EGF recombinant protein (Invitrogen, cat. PHG0313), 23.4 microg/mL adenine (Sigma-Aldrich, cat. A2786), 97.3 U/mL penicillin-streptomycin (Invitrogen, cat. 15140122), 1.9 mM L-glutamine (Invitrogen, cat. 25030081), and 9.7 microM Y-27632 dihydrochloride (Tocris Bioscience, Bristol, United Kingdom, cat. 1254). The PDCs were cultured in complete DMEM/F12 media without 9.7 microM Y-27632 dihydrochloride for at least two passages prior to the screen. The established cell line HOP-62 was cultured in RPMI 1640 medium, HEPES (Invitrogen, cat. 22400105) with 10% defined fetal bovine serum (HyClone Laboratories Inc., cat. SH30070.03) and 2 mM L-glutamine (Invitrogen, cat. 25030081). The pooled donor HUVEC were cultured in endothelial cell growth medium 2 (PromoCell, Heidelberg, Germany, cat. C-22011) and the hMSC were cultured in mesenchymal stem cell growth medium 2 (PromoCell, cat. C-28009). For all experiments, HUVEC and hMSC were used at passages </=5, while the malignant cell lines were used at passages </=15. […]

[1] = second compound 0.1 µM, first compound 0.0316 µM
[2] = second compound 0.1 µM, first compound 0.1 µM
[3] = second compound 0.316 µM, first compound 0.0316 µM
[4] = second compound 0.316 µM, first compound 0.1 µM
[5] = second compound 1 µM, first compound 0.0316 µM
[6] = second compound 1 µM, first compound 0.1 µM
[7] = second compound 3.16 µM, first compound 0.0316 µM
[8] = second compound 3.16 µM, first compound 0.1 µM
[9] = second compound 10 µM, first compound 0.0316 µM
[10] = second compound 10 µM, first compound 0.1 µM
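Further: spheroids exposed to agents for seven days before readout.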

CC(C)n1nc(-c2ccc3oc(N)nc3c2)c2c(N)ncnc21 + C=CC(=O)N1CCN(c2nc(=O)n(-c3c(C)ccnc3C(C)C)c3nc(-c4c(O)cccc4F)c(F)cc23)C(C)C1
< 0.316 nM: IC50 (second compound 0.1 µM) | IC50 (second compound 0.316 µM) | IC50 (second compound 1 µM) | IC50 (second compound 3.16 µM) | IC50 (second compound 10 µM)
inactive: viability, T/C (second compound 0.1 µM, first compound 0.000316 µM) 13.2% | viability, T/C (second compound 0.1 µM, first compound 0.001 µM) 17% | viability, T/C (second compound 0.316 µM, first compound 0.000316 µM) 13.8% | viability, T/C (second compound 0.316 µM, first compound 0.001 µM) 11.7% | viability, T/C (second compound 1 µM, first compound 0.000316 µM) 15% | viability, T/C (second compound 1 µM, first compound 0.001 µM) 11% | viability, T/C (second compound 3.16 µM, first compound 0.000316 µM) 14.2% | viability, T/C (second compound 3.16 µM, first compound 0.001 µM) 16.4% | viability, T/C (second compound 3.16 µM, first compound 0.00316 µM) 13.3% | viability, T/C (second compound 3.16 µM, first compound 0.01 µM) 9.65% | viability, T/C (second compound 10 µM, first compound 0.000316 µM) 17.3% | viability, T/C (second compound 10 µM, first compound 0.001 µM) 16.8% | viability, T/C (second compound 10 µM, first compound 0.00316 µM) 16.5% | viability, T/C (second compound 10 µM, first compound 0.01 µM) 15.2% | viability, T/C [9] 11.3% | viability, T/C [10] 11.2%
active: viability, T/C (second compound 0.1 µM, first compound 0.00316 µM) 8.16% | viability, T/C (second compound 0.1 µM, first compound 0.01 µM) 5.92% | viability, T/C [1] 4.43% | viability, T/C [2] 3.9% | viability, T/C (second compound 0.316 µM, first compound 0.00316 µM) 10.2% | viability, T/C (second compound 0.316 µM, first compound 0.01 µM) 6.98% | viability, T/C [3] 4.02% | viability, T/C [4] 3.22% | viability, T/C (second compound 1 µM, first compound 0.00316 µM) 9.95% | viability, T/C (second compound 1 µM, first compound 0.01 µM) 7.7% | viability, T/C [5] 4.43% | viability, T/C [6] 5.61% | viability, T/C [7] 6% | viability, T/C [8] 6.12%

COc1cc2nccc(Oc3ccc(NC(=O)C4(C(=O)Nc5ccc(F)cc5)CC4)cc3)c2cc1OC + C=CC(=O)N1CCN(c2nc(=O)n(-c3c(C)ccnc3C(C)C)c3nc(-c4c(O)cccc4F)c(F)cc23)C(C)C1
active: viability, T/C (second compound 0.1 µM, first compound 3.16 µM) 7.75% | viability, T/C (second compound 0.1 µM, first compound 10 µM) 8.03% | viability, T/C (second compound 0.316 µM, first compound 3.16 µM) 6.81% | viability, T/C (second compound 0.316 µM, first compound 10 µM) 8.86% | viability, T/C (second compound 1 µM, first compound 3.16 µM) 6.93% | viability, T/C (second compound 1 µM, first compound 10 µM) 8.12% | viability, T/C (second compound 3.16 µM, first compound 10 µM) 8.84% | viability, T/C (second compound 10 µM, first compound 10 µM) 9.93%
inactive: viability, T/C [1] 14.6% | viability, T/C [2] 14.5% | viability, T/C (second compound 0.1 µM, first compound 0.316 µM) 12.8% | viability, T/C (second compound 0.1 µM, first compound 1 µM) 11.6% | viability, T/C [3] 15% | viability, T/C [4] 15.7% | viability, T/C (second compound 0.316 µM, first compound 0.316 µM) 11.6% | viability, T/C (second compound 0.316 µM, first compound 1 µM) 11.6% | viability, T/C [5] 17.4% | viability, T/C [6] 16.8% | viability, T/C (second compound 1 µM, first compound 0.316 µM) 14.5% | viability, T/C (second compound 1 µM, first compound 1 µM) 12.3% | viability, T/C [7] 17.6% | viability, T/C [8] 16.4% | viability, T/C (second compound 3.16 µM, first compound 0.316 µM) 15.3% | viability, T/C (second compound 3.16 µM, first compound 1 µM) 16.7% | viability, T/C (second compound 3.16 µM, first compound 3.16 µM) 7.9% | viability, T/C [9] 19.1% | viability, T/C [10] 19.5% | viability, T/C (second compound 10 µM, first compound 0.316 µM) 15.3% | viability, T/C (second compound 10 µM, first compound 1 µM) 13% | viability, T/C (second compound 10 µM, first compound 3.16 µM) 8.1%
< 31.6 nM: IC50 (second compound 0.1 µM) | IC50 (second compound 0.316 µM) | IC50 (second compound 1 µM) | IC50 (second compound 3.16 µM) | IC50 (second compound 10 µM)

— PubChem BioAssay AID1963862 (Molecular Pharmacology Branch, DTP, NCI, 2024)
